Source: article PMC10412636, “An analysis of interactions between three structurally diverse anthocyanidins, as well as their glucosides, and model biological membranes, albumin, and plasmid DNA” (Scientific Reports, 2023)

How the values were obtained:
[1] = DPH fluorescence quenching, dissociation constant with RBCM liposome membrane; type: binding, human; conditions: 37 °C
[2] = DPH fluorescence quenching, dissociation constant with MM liposome membrane; type: binding; conditions: 37 °C
Procedure: (§1) Two types of liposomes were used to study interactions with biological membranes: liposomes mimicking the composition of cancer cell membranes (mimic membrane liposome—MM) and liposomes formed from lipids extracted from human blood erythrocyte membranes (red blood cell membrane liposome—RBCM). […] Both lipids, dissolved in chloroform (MM liposome) and n-decane (RBCM liposome), were evaporated under a nitrogen atmosphere, and then dried in a desiccator for 90 min under a vacuum. The obtained dry lipid film was hydrated in phosphate buffer, pH 7.4, obtaining a concentration of 0.1 mg/ml, and then vortexed for one minute until a homogeneous, milky suspension was observed. The mixture was sonicated (Sonic, Milano, Italia) for 15 min keeping the sample in a bath of ice water, thus providing a cooling temperature of 0 °C. The suspension was then processed (extrusion) through polycarbonate filters with pore diameters of 100 and 200 nm using a Lipex extruder (Evonik). Liposomes, which had been prepared according to this procedure, was used in fluorimetric studies.
The phenomenon of quenching the fluorescence of the DPH probe by biologically active substances enabled us to evaluate the partition coefficient (Kd, dissociation constant) of anthocyanins with both MM and RBCM liposome membranes. For this purpose, changes in the fluorescence intensity of this probe were checked and the coefficient was calculated using the equation[48]:2 1/F0/F-1=Kd/[liposomes]×1/[anthocyanins]+1/liposomes where F0—fluorescence intensity in the absence of anthocyanins (control sample), F—fluorescence intensity in the presence of anthocyanins, [liposomes]—concentration of liposomes in mg/ml, [anthocyanins]—concentration of anthocyanins tested mg/ml.
(§2) Liposomes (the concentration of lipids in the sample was 0.1 mg/ml) were incubated for 30 min with the appropriate probe (dissolved in DMF, 1 µM concentration), and then the tested anthocyanins were added (final concentration of 1 to 30 µM). The control sample consisted of liposomes and a fluorescent probe. Fluorescence was measured on a fluorimeter (Cary Eclipse, Varian, San Diego, USA) at 37 °C. The excitation wavelengths λex and emission wavelengths λem respectively: MC540—λexc = 540 nm, λem = 590 nm; DPH—λexc = 360 nm, λem = 425 nm. nm; TMA-DPH—λexc = 340 nm, λem = 430 nm.

[3] = MC540 probe fluorescence intensity in MM liposomes; conditions: 37 °C, positive = decrease
Procedure: as §1
(§3) To investigate these properties three fluorescent probes were used: MC540, TMA-DPH, and DPH. MC540 localizes to the outer, hydrophilic part of the membrane, within the region of the glycerol skeleton[44]. Changes in the fluorescence intensity of this probe were formulated as the relative change in intensity to the control as a function of anthocyanins concentration. The TMA-DPH and DPH probes are supposed to locate nearer to the interface and in the hydrophobic region, respectively[45]. The measurement of changes in the anisotropy of the TMA-DPH and DPH probes allowed us to reflect the mobility of the fluorescent probes in the membrane, and therefore to determine the fluidity of the bilayer[46]. Fluorescence anisotropy was calculated using the formula[47]:1 A=I‖-GI⊥/I‖+2GI⊥ where I‖ and I⊥ are the intensity of fluorescence in parallel and perpendicular directions, to the plane of polarization of the excitation wave, respectively. G is an apparatus constant that depends on the emission wavelength.
as §2

[4] = target: human serum albumin (HSA) (Homo sapiens, UniProt P02768); assay: Quenching of natural fluorescence of human serum albumin; type: binding; conditions: HSA […] 10^–5 M, 37 °C
human serum albumin (HSA), sequence (P02768 25-609): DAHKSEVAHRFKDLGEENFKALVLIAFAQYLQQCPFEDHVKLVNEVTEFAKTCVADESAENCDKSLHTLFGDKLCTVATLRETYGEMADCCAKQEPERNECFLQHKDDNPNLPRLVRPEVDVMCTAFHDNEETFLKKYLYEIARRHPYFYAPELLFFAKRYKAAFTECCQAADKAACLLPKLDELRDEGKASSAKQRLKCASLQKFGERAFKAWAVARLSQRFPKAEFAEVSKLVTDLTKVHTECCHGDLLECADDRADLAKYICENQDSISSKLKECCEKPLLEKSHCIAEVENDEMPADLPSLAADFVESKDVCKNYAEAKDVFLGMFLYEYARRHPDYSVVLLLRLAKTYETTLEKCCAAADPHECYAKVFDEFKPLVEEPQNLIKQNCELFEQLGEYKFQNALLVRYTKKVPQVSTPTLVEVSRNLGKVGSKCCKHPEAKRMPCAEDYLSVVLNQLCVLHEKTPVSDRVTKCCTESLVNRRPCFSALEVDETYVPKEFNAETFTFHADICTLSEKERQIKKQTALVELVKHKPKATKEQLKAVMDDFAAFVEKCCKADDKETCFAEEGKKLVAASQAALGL
Procedure: The phenomenon of quenching the natural fluorescence of human serum albumin (HSA) was used to investigate the potential interaction of anthocyanins with this protein. […] Anthocyanins with concentrations ranging from 1 to 30 µM were added to HSA dissolved in phosphate buffer (1.5 × 10^–5 M) and then incubated at 37 °C for 20 min. Emission spectra were performed on a fluorimeter Cary Eclipse (Varian, San Diego, USA) at 37 °C. HSA fluorescence was excited with a wavelength of λ = 280 nm, the emission was measured in the range from 286 to 460 nm, and the fluorescence intensity was read at 345 nm where the emission maximum of HSA was located.
The Stern–Volmer equation was used to thoroughly describe the quenching mechanism of natural fluorescence and to determine the bindings parameters of HSA: anthocyanin complexes:4 F0/F=1+Kqτ0Q=1+KSV[Q] where F0—fluorescence intensity in the absence of anthocyanins (control sample), F—fluorescence intensity in the presence of anthocyanins, KSV—Stern–Volmer quenching constant (KSV = Kq·τ0), [Q]—concentration of quencher (tested compound), Kq—bimolecular quenching constant, τ0—a lifetime of the fluorophore in the absence of quencher the fluorescence lifetime of a biopolymer is calculated as 5 × 10^–9 s[51].
The apparent binding constants (Kb) and the number of binding sites (n) can be calculated using the following equation:5 log(F0-F/F]=logKb+nlog[Q]
F0 and F are the fluorescence intensities before and after the addition of the quencher. From the linear plot of log (F0 − F)/F versus log [Q], the value of Kb was obtained from the intercept.

[5] = DPH probe fluorescence anisotropy in MM liposomes; conditions: for Changes in DPH anisotropy relative to the control: MM, negative = increase in anisotropy
Procedure: as §1, §3, §2

[6] = MC540 probe fluorescence intensity in RBCM liposomes; design: species or system human; conditions: 37 °C, positive = decrease
pHbApr-1-Neo plasmid DNA = assay: TCSPC-FCS of PicoGreen-labelled plasmid DNA with anthocyanins; type: binding
Procedure: To evaluate the biological interaction with DNA molecules the anthocyanins were initially dissolved in ETOH (1 mM). […] Mixing of such solutions with the aqueous DNA solutions used in the studies never exceeded 1% concentration ETOH (v/v) in the final solution. The DNA plasmid was labelled by PicoGreen (CPicoGreen/CDNAbp = 0.02)[52]. The pHbApr-1-Neo plasmid (10 kbp and contour length 3.4 µm) was a generous gift from the laboratory of Prof. Maciej Ugorski (Department of Biochemistry and Molecular Biology, Wrocław University of Environmental and Life Sciences Wroclaw, Poland). PicoGreen-labelled DNA samples mixed with the appropriate amount of anthocyanins were left overnight and then measured. The increasing concentration of anthocyanins in the tested samples was expressed as the ratio of the molar concentration of anthocyanins per molar concentration of DNA base pairs in a given sample (comp/bp). The 100 µl samples were measured in Ibidi 8-well chambers. Each point on the graph is a single sample (average of 10 measurements). All measurements were performed at room temperature (25 °C). Time-correlated single-photon counting fluorescence correlation spectroscopy (TCSPC-FCS) was used to study the interaction of plasmid DNA at the single molecule level with all tested anthocyanins. […] Low power of 1uW (at the back aperture of the objective) was chosen to minimize photobleaching and saturation. In the detection plane, a pinhole (50um in diameter) was used and the signal was collected by a single photon avalanche diode (SPAD, Microphoton Devices, Bolzano, Italy). Photon arrival times were stored using fast electronics (Picoharp 300, PicoQuant) in time-tagged time-resolved recording mode. Two independent times were assigned to each detected photon: (1) a time after the beginning of the measurement and (2) a time after the previous laser pulse. The FCS data analysis was done using home-built routines (DevC++, Bloodshed Software and OriginPro70, OriginLab Corporation). The TCSPC data analysis was performed using SymPhoTime software (PicoQuant). Further details of the data evaluation are given elsewhere.

[7] = DPH probe fluorescence anisotropy in RBCM liposomes; design: species or system human; conditions: for Changes in DPH anisotropy relative to the control: RBCM, negative = increase in anisotropy
Procedure: as §1, §3, §2

[8] = TMA-DPH probe fluorescence anisotropy in RBCM liposomes; design: species or system human; conditions: negative = increase in anisotropy
From the text: Two types of liposomes were used to study interactions with biological membranes: liposomes mimicking the composition of cancer cell membranes (mimic membrane liposome—MM) and liposomes formed from lipids extracted from human blood erythrocyte membranes (red blood cell membrane liposome—RBCM). […] The RBCM liposome was according to the methodology described previously[42] with minor modifications[43]. Both lipids, dissolved in chloroform (MM liposome) and n-decane (RBCM liposome), were evaporated under a nitrogen atmosphere, and then dried in a desiccator for 90 min under a vacuum. The obtained dry lipid film was hydrated in phosphate buffer, pH 7.4, obtaining a concentration of 0.1 mg/ml, and then vortexed for one minute until a homogeneous, milky suspension was observed. The mixture was sonicated (Sonic, Milano, Italia) for 15 min keeping the sample in a bath of ice water, thus providing a cooling temperature of 0 °C. The suspension was then processed (extrusion) through polycarbonate filters with pore diameters of 100 and 200 nm using a Lipex extruder (Evonik). Liposomes, which had been prepared according to this procedure, was used in fluorimetric studies.
To investigate these properties three fluorescent probes were used: MC540, TMA-DPH, and DPH. MC540 localizes to the outer, hydrophilic part of the membrane, within the region of the glycerol skeleton[44]. […] The TMA-DPH and DPH probes are supposed to locate nearer to the interface and in the hydrophobic region, respectively[45]. The measurement of changes in the anisotropy of the TMA-DPH and DPH probes allowed us to reflect the mobility of the fluorescent probes in the membrane, and therefore to determine the fluidity of the bilayer[46]. Fluorescence anisotropy was calculated using the formula[47]:1 A=I‖-GI⊥/I‖+2GI⊥ where I‖ and I⊥ are the intensity of fluorescence in parallel and perpendicular directions, to the plane of polarization of the excitation wave, respectively. G is an apparatus constant that depends on the emission wavelength.
as §2

[9] = TMA-DPH probe fluorescence anisotropy in MM liposomes; conditions: negative = increase in anisotropy
Procedure: as §1, §3, §2

For `COc1cc(-c2[o+]c3cc(O)cc(O)c3cc2O)cc(O)c1O` [Pt, Petunidin], the Kd [1] was 15.3 ± 4.01 µM, the Kd [2] was 10.4 ± 2.45 µM and the “Changes in MC540 fluorescence intensity relative to the control” value ([3]; 1 µM) was 17.63±1.11%. The “Changes in MC540 fluorescence intensity relative to the control” value ([3]; 5 µM) was 36.62±1.63%, the “Changes in MC540 fluorescence intensity relative to the control” value ([3]; 10 µM) was 50.22±5.62% and the “Changes in MC540 fluorescence intensity relative to the control” value ([3]; 20 µM) was 64.46±7.12%. The “Changes in MC540 fluorescence intensity relative to the control” value ([3]; 30 µM) was 72.51±3.32%, the “Changes in MC540 fluorescence intensity relative to the control” value ([3]; 30 µM, listed as petunidin) was 72.5 ± 3.3% and the “Stern Volmer constant KSV” value [4] was 25.99 ± 1.77 × 10^3 M^−1. The “number of binding sites n” value [4] was 1.03 ± 0.03, the “highest percentage of an increase in DPH anisotropy relative to the control” value ([5]; MM liposome, 20 µM) was 17.6 ± 0.4% and the “Changes in DPH anisotropy relative to the control” value ([5]; 1 µM) was -13.00±0.31%. The “Changes in DPH anisotropy relative to the control” value ([5]; 5 µM) was -15.66±0.33%, the “Changes in DPH anisotropy relative to the control” value ([5]; 10 µM) was -17.48±0.09% and the “Changes in DPH anisotropy relative to the control” value ([5]; 20 µM) was -17.59±0.36%. For the same molecule, the “Changes in DPH anisotropy relative to the control” value ([5]; 30 µM) was -14.74±0.10%, the “Changes in MC540 fluorescence intensity relative to the control” value ([6]; 1 µM) was 16.68±0.58% and the “Changes in MC540 fluorescence intensity relative to the control” value ([6]; 5 µM) was 32.60±0.15%. The “Changes in MC540 fluorescence intensity relative to the control” value ([6]; 10 µM) was 43.35±1.60%, the “Changes in MC540 fluorescence intensity relative to the control” value ([6]; 20 µM) was 55.02±1.41% and the “Changes in MC540 fluorescence intensity relative to the control” value ([6]; 30 µM) was 61.93±1.58%. For the same molecule, the “Changes in MC540 fluorescence intensity relative to the control” value ([6]; 30 µM, listed as petunidin) was 61.9 ± 1.6%, the “lifetime (LT)” value (pHbApr-1-Neo plasmid DNA; comp/bp from 0 to 5, continuous decrease from 4.25 ns) was 2.3 ns and the “Particle Number (PN)” value (pHbApr-1-Neo plasmid DNA; comp/bp from 0 to 5, continuous decrease from 5.0) was “about 0”. The “changes in plasmid tD, lower compared to those obtained for Pt 3-glc” value (pHbApr-1-Neo plasmid DNA; comp/bp up to 0.8) was about 3.5 fold, the “decrease in the diffusion time (tD)” value (pHbApr-1-Neo plasmid DNA; tested range of comp/bp from 0 to 5) was 3.5 fold and the “highest percentage of an increase in DPH anisotropy relative to the control” value ([7]; RBCM liposome, 20 µM) was 10.5 ± 0.7%. The “Changes in DPH anisotropy relative to the control” value ([7]; 1 µM) was -9.91±0.36%, the “Changes in DPH anisotropy relative to the control” value ([7]; 5 µM) was -8.46±0.42% and the “Changes in DPH anisotropy relative to the control” value ([7]; 10 µM) was -10.18±0.39%. For the same molecule, the “Changes in DPH anisotropy relative to the control” value ([7]; 20 µM) was -10.51±0.67%, the “Changes in DPH anisotropy relative to the control” value ([7]; 30 µM) was -9.21±0.62% and the “Changes in TMA-DPH anisotropy relative to the control” value ([8]; 1 µM) was -4.68±0.23%. For the same molecule, the “Changes in TMA-DPH anisotropy relative to the control” value ([8]; 5 µM) was -0.95±0.03%, the “Changes in TMA-DPH anisotropy relative to the control” value ([8]; 10 µM) was -1.05±0.03% and the “Changes in TMA-DPH anisotropy relative to the control” value ([8]; 20 µM) was 1.13±0.07%. The “Changes in TMA-DPH anisotropy relative to the control” value ([8]; 30 µM) was 0.70±0.02%, the “Changes in TMA-DPH anisotropy relative to the control” value ([9]; 1 µM) was -5.05±0.11% and the “Changes in TMA-DPH anisotropy relative to the control” value ([9]; 5 µM) was -4.34±0.09%. For the same molecule, the “Changes in TMA-DPH anisotropy relative to the control” value ([9]; 10 µM) was -2.97±0.04%, the “Changes in TMA-DPH anisotropy relative to the control” value ([9]; 20 µM) was -5.53±0.11% and the “Changes in TMA-DPH anisotropy relative to the control” value ([9]; 30 µM) was -5.92±0.33%.
